Experimental data as given in patent publication US9333202B2, “Non-retinoid antagonists for treatment of age-related macular degeneration and stargardt disease” (THE TRUSTEES OF COLUMBIA UNIVERSITY IN THE CITY OF NEW YORK, priority 2012, dated 2016).
“Also recorded” adds a separate entry of the source.

Columns and labels:
[1] = target: T1, RBP4-TTR interaction (Homo sapiens, UniProt P02753); experiment: TR-FRET (HTRF) assay for antagonists of retinol-induced RBP4-TTR interaction, agonist and antagonist mode (Example 2); type: biochemical; set-up: made in house; host or cells: E. coli; conditions: agonist mode, dose titration
From the text: TR-FRET (Time-Resolved Fluorescence Resonance Energy Transfer) is an assay format that can be used in characterization of compounds affecting protein-protein interactions (31-33). […] In the presence of retinol, RBP4-TTR interaction induces FRET that can be registered as increased ratio of […] fluorescence signals. Binding of a desired RBP4 antagonist displaces retinol and induces hindrance for RBP4-TTR interaction resulting in the decreased FRET signal (FIG. 7).
The assay was developed using E. coli-expressed MBP-tagged RBP4 and commercially available TTR labeled directly with Eu3+ cryptate. In addition to MBP-RBP4 and Eu3+ (K)-TTR, a detector reagent anti-MBP-d2 was present in the mix. The assay was first optimized in the agonist mode; sensitivity and dynamic range of the assay was […] in respect to RBP4, TTR and detection reagent concentrations.

[2] = target: T2, human RBP4 (Homo sapiens, UniProt P02753); experiment: Scintillation proximity (SPA) RBP4 binding assay
T2 construct: Untagged human RBP4 purified from urine of tubular proteinuria patients; purchased Fitzgerald Industries International; host or cells: human urine (tubular proteinuria patients)
Procedure: Untagged human RBP4 purified from urine of tubular proteinuria patients was purchased from Fitzgerald Industries International. It was biotinylated using the EZ-Link Sulfo-NHS-LC-Biotinylation kit from Pierce following the manufacturer's recommendations. Binding experiments were performed in 96-well plates (OptiPlate, PerkinElmer) in a final assay volume of 100 μl per well in SPA buffer (1×PBS, pH 7.4, 1 mM EDTA, 0.1% BSA, 0.5% CHAPS). The reaction mix contained 10 nM ^3H-Retinol (48.7 Ci/mmol; PerkinElmer), 0.3 mg/well Streptavidin-PVT beads, 50 nM biotinylated RBP4 and a test compound. Nonspecific binding was determined in the presence of 20 μM of unlabeled retinol. The reaction mix was assembled in the dark under dim red light. The plates were sealed with clear tape (TopSeal-A: 96-well microplate, PerkinElmer), wrapped in the aluminum foil, and allowed to equilibrate 6 hours at room temperature followed by overnight incubation at +4° C. Radiocounts were measured using a TopCount NXT counter (Packard Instrument Company).

[3] = target: T1, RBP4-TTR interaction; experiment: HTRF/TR-FRET assay for retinol-dependent RBP4-TTR interaction (1 μM retinol); type: biochemical; set-up: human RBP4 fragment (amino acids 19-201) was expressed in the Gold(DE3)pLysS E. coli strain; made in house; host or cells: E. coli Gold(DE3)pLysS (Stratagene), pMAL-c4x vector
From the text: Bacterially expressed MBP-RBP4 and untagged TTR were used in this assay. For the use in the TR-FRET assay the maltose binding protein (MBP)-tagged human RBP4 fragment (amino acids 19-201) was expressed in the Gold(DE3)pLysS E. coli strain (Stratagene) using the […] vector. Following cell lysis, recombinant RBP4 was purified from the soluble fraction using the ACTA FPLC system (GE Healthcare) equipped with the 5-ml the MBP Trap HP column. Human untagged TTR was purchased from Calbiochem. Untagged TTR was labeled directly with Eu^3+ Cryptate-NHS using the HTRF Cryptate Labeling kit from CisBio following the manufacturer's recommendations. HTRF assay was performed in white low volume 384 well plates (Greiner-Bio) in a final assay volume of 16 μl per well. The reaction buffer contained 10 mM Tris-HCl pH 7.5, 1 mM DTT, 0.05% NP-40, 0.05% Prionex, 6% glycerol, and 400 mM KF. Each reaction contained 60 nM MBP-RBP4 and 2 nM TTR-Eu along with 26.7 nM of anti-MBP antibody conjugated with d2 (Cisbio). Titration of test compounds in this assay was conducted in the presence of 1 μM retinol. All reactions were assembled in the dark under dim red light and incubated overnight at +4° C. wrapped in aluminum foil. TR-FRET signal was measured in the SpectraMax M5e Multimode Plate Reader (Molecular Device). Fluorescence was excited at 337 nm and two readings per well were taken: Reading 1 for time-gated energy transfer from Eu(K) to d2 (337 nm excitation, 668 nm emission, counting delay 75 microseconds, counting window 100 microseconds) and Reading 2 for Eu(K) time-gated fluorescence (337 nm excitation, 620 nm emission, counting delay 400 microseconds, counting window 400 microseconds). The TR-FRET signal was expressed as the ratio of fluorescence intensity: Flu665/Flu620×10,000.

Induction of RBP4-TTR interaction [1]	Binding to RBP4 in vitro (in words) [2]	IC50 ([2]; 10 nM 3H-retinol, 50 nM biotinylated RBP4, each value one experiment, read-out: IC50 in SPA-based RBP4 binding assay)	IC50 ([3]; in the presence of 1 μM retinol, each value one experiment, read-out: IC50 in HTRF-based retinol-dependent RBP4-TTR interaction assay)	SMILES	Antagonism of RBP4-TTR interaction in vitro (in words) [3]
did not induce RBP4-TTR interaction				CC1=C(/C=C/C(C)=C/C=C/C(C)=C/C(=O)Nc2ccc(O)cc2)C(C)(C)CCC1 [fenretinide, N-(4-hydroxy-phenyl)retinamide]	
	bind to RBP4	19.9 nM	199 nM	O=C(O)c1cnccc1NC(=O)N1CCC(c2ccccc2C(F)(F)F)CC1 [Compound 65]	antagonize retinol-dependent RBP4-TTR interaction; also recorded: antagonize RBP4-TTR interaction in vitro at biologically significant concentrations
